Measurements: paper PMC5816668, “Insights into the inhibitory mechanisms of NADH on the αγ heterodimer of human NAD-dependent isocitrate dehydrogenase” (Scientific Reports, 2018)
Like-named read-outs stand apart in the source and are kept apart here.

Key:
[1] = target: T1, αγ heterodimer of human NAD-IDH (Homo sapiens, UniProt P50213+P51553); assay: ITC; format: binding; settings: read-out: K d (μ M) ^a
T1 construct: gene IDH3A; E. coli BL21(DE3) Codon-Plus co-expression from pQlinkN-α-γ-tev-His6; C-terminal His6 of gamma cut with TEV protease; alpha 37 kDa, gamma 39 kDa; heterodimer
T1 sequence (P50213 28-366): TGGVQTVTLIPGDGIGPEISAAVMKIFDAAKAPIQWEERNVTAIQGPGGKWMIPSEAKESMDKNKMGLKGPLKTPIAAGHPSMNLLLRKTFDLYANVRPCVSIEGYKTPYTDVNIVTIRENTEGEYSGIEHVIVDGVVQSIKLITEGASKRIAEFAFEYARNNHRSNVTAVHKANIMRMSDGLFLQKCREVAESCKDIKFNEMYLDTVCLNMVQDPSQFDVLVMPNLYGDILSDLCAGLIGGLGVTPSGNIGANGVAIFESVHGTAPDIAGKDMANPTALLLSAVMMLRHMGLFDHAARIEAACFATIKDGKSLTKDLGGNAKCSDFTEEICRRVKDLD
T1 sequence (P51553 40-393): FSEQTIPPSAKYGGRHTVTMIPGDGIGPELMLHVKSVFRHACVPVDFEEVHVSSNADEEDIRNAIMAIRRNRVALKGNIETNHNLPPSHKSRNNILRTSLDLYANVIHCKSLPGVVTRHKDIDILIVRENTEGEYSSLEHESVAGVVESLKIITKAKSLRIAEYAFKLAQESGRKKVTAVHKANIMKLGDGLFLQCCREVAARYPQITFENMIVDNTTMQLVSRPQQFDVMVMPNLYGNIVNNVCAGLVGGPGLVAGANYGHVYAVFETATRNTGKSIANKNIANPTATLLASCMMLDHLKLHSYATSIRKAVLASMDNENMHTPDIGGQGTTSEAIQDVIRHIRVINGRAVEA
Source text: ITC on αγ heterodimer of human NAD-IDH

[2] = target: T2, αβ heterodimer of human NAD-IDH (Homo sapiens, UniProt P50213); assay: ITC; format: binding; settings: 50 mM HEPES pH 7.4, 200 mM NaCl, 20 °C, read-out: K d (μ M) ^a
T2 construct: gene IDH3A; alpha 37 kDa, beta 39 kDa; heterodimer
T2 sequence (O43837 35-385 partner, one chain of several): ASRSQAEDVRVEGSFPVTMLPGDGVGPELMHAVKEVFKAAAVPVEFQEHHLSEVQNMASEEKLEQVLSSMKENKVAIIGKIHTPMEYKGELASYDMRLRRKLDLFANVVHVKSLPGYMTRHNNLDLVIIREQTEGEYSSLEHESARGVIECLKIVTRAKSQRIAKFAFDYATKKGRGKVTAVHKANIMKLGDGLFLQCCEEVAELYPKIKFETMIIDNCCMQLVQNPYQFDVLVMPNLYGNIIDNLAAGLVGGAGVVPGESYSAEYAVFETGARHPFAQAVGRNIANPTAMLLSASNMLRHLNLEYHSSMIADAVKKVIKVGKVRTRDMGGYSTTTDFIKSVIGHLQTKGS
Source text: ITC on αβ heterodimer of human NAD-IDH

[3] = target: T1, αγ heterodimer of human NAD-IDH; assay: NADH formation at […] nm; format: biochemical
[4] = target: T3, α2βγ heterotetramer of human NAD-IDH (Homo sapiens, UniProt P50213+P51553); assay: NADH formation at […] nm; format: biochemical; settings: 33 mM Tris-acetate pH 7.4, 2 mM MnCl2, 20 mM DL-isocitrate, 1 mM NAD+, 25 °C
T3 construct: gene IDH3A; alpha 37 kDa, beta 39 kDa, gamma 39 kDa
T3 sequence (O43837 35-385 partner, one chain of several): as above

[5] = target: T3, α2βγ heterotetramer of human NAD-IDH; assay: ITC; format: binding; settings: 50 mM HEPES pH 7.4, 200 mM NaCl, 20 °C; single set of sites fit, n 2.53; read-out: K d (μ M) ^a
Source text: ITC on α2βγ heterotetramer of human NAD-IDH

[6] = target: T2, αβ heterodimer of human NAD-IDH; assay: NADH formation at […] nm; format: biochemical; settings: 33 mM Tris-acetate pH 7.4, 20 mM DL-isocitrate, 1 mM NAD+, 25 °C

Kd [1]	Kd ([2]; single set of sites fit, n 1.26)	IC50 [3]	IC50 [4]	Kd [5]	IC50 [6]	Kd ([2]; no isocitrate, n 1.14)	SMILES
109 ± 19.5 µM	4.6 ± 0.7 µM	82.7 ± 6 µM	78.5 ± 5.4 µM	46.3 ± 6.5 µM	94.9 ± 7.8 µM	–	NC(=O)C1=CN([C@@H]2O[C@H](COP(=O)(O)OP(=O)(O)OC[C@H]3O[C@@H](n4cnc5c(N)ncnc54)[C@H](O)[C@@H]3O)[C@@H](O)[C@H]2O)C=CC1 [NADH]
–	–	–	–	–	–	268 ± 28.4 µM	NC(=O)c1ccc[n+]([C@@H]2O[C@H](COP(=O)(O)OP(=O)(O)OC[C@H]3O[C@@H](n4cnc5c(N)ncnc54)[C@H](O)[C@@H]3O)[C@@H](O)[C@H]2O)c1 [NAD^+]
